What all share (type): in vivo
For experiment [1], the system named is Alopecurus myosuroides (ALOMY). Description: Pre-emergence biological efficacy (percentage damage). To be noted: dose 1,000 g/ha, evaluated after 13 days, 100=total damage, 0=no damage; for pest or weed control at 1000 g/ha: Alopecurus myosuroides, 312 h. An outline of the steps:
(§1)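 Pre-emergence spray, 250 or 1000 g/ha, acetone/water 50:50 + 0.5% Tween 20, applied 1 d after sowing in standard soil. Glasshouse 24/16 °C, 14 h light, 65% RH, watered twice daily. Scored day 13, 0–100% damage.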

Experiment [2] concerns Amaranthus retoflexus (AMARE). Described as above. Particulars: dose 1,000 g/ha, evaluated after 13 days, 100=total damage, 0=no damage; for pest or weed control at 1000 g/ha: Amaranthus retroflexus, 312 h. An outline of the steps:
as §1

In experiment [3] the test system is Echinochloa crus-galli (ECHCG). The experiment is described as above. Particulars: dose 1,000 g/ha, evaluated after 13 days, 100=total damage, 0=no damage; for pest or weed control at 1000 g/ha: Echinochloa crus-galli, 312 h. An outline of the steps:
as §1

Experiment [4] has as its system Ipomea hederaceae (IPOHE). The experiment is described as above. Particulars: dose 1,000 g/ha, evaluated after 13 days, 100=total damage, 0=no damage; for pest or weed control at 1000 g/ha: Ipomoea hederacea, 312 h. Put shortly:
as §1

Experiment [5] has as its system Setaria faberi (SETFA). The description is as above. Particulars: dose 1,000 g/ha, evaluated after 13 days, 100=total damage, 0=no damage; for pest or weed control at 1000 g/ha: Setaria faberi, 312 h. Put shortly:
as §1

The subject of experiment [6] is Solanum nigrum (SOLNI). The description is as above. Particulars: dose 1,000 g/ha, evaluated after 13 days, 100=total damage, 0=no damage; for pest or weed control at 1000 g/ha: Solanum nigrum, 312 h. An outline of the steps:
as §1

Experiment [7] relates to Alopecurus myosuroides (ALOMY). Briefly: Post-emergence biological efficacy (percentage damage). Particulars: dose 1,000 g/ha, evaluated after 13 days, 100=total damage, 0=no damage; for pest or weed control at 1000 g/ha: Alopecurus myosuroides, 312 h. An outline of the steps:
(§2)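 Post-emergence glasshouse test: plants sprayed 8 days after sowing (24/16 °C day/night, 14 h light, 65% humidity) at 250 or 1000 g/ha, formulated in acetone/water 50:50 with 0.5% Tween 20. Damage scored visually 13 days after treatment on a 0–100 scale (100 = total damage).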

Experiment [8] relates to Amaranthus retoflexus (AMARE). The experiment is described as above. To be noted: dose 1,000 g/ha, evaluated after 13 days, 100=total damage, 0=no damage; for pest or weed control at 1000 g/ha: Amaranthus retroflexus, 312 h. Put shortly:
as §2

Experiment [9] concerns Echinochloa crus-galli (ECHCG). The description is as above. To be noted: dose 1,000 g/ha, evaluated after 13 days, 100=total damage, 0=no damage; for pest or weed control at 1000 g/ha: Echinochloa crus-galli, 312 h. Put shortly:
as §2

The subject of experiment [10] is Ipomea hederaceae (IPOHE). The experiment is described as above. Particulars: dose 1,000 g/ha, evaluated after 13 days, 100=total damage, 0=no damage; for pest or weed control at 1000 g/ha: Ipomoea hederacea, 312 h. An outline of the steps:
as §2

The test system of experiment [11] is Setaria faberi (SETFA). Described as above. Particulars: dose 1,000 g/ha, evaluated after 13 days, 100=total damage, 0=no damage; for pest or weed control at 1000 g/ha: Setaria faberi, 312 h. Put shortly:
as §2

The subject of experiment [12] is Solanum nigrum (SOLNI). Described as above. To be noted: dose 1,000 g/ha, evaluated after 13 days, 100=total damage, 0=no damage; for pest or weed control at 1000 g/ha: Solanum nigrum, 312 h. An outline of the steps: as §2

Structures are written as SMILES.

As for `COC(=O)c1nc(-c2ccc(C)c(OC)c2F)nc(N)c1C` [Compound 60-41], the pest or weed control at 1000 g/ha came out at 20% in experiment [1]; 0% in experiment [2]; 10% in experiment [3]; 10% in [4]; 10% in the experiment on Setaria faberi (SETFA) [5]; 40% in the experiment on Solanum nigrum (SOLNI) [6]. In addition, the pest or weed control at 1000 g/ha in experiment [7] amounted to 40%; in experiment [8] it was 100%; in experiment [9] it was 30%; in experiment [10], 40%; in the experiment with Setaria faberi (SETFA) [11], 10%; in the experiment on Solanum nigrum (SOLNI) [12], 100%.

Turning to `C=C(OCC)c1c(N)nc(-c2ccc(Cl)c(N(C)C)c2F)nc1C(=O)OC` [Compound 33-67, 4-Amino-2-(4-chloro-3-dimethylamino-2-fluorophenyl)-5-(1-ethoxyethenyl)-6-methoxycarbonyl-pyrimidine], the pest or weed control at 1000 g/ha was found to be 0% in experiment [1]; 0% in experiment [2]; 0% in [3]; 10% in [4]; 0% with Setaria faberi (SETFA) [5]; 0% with Solanum nigrum (SOLNI) [6]. Besides, the pest or weed control at 1000 g/ha in [7] stood at 0%; in experiment [8] it was 10%; in experiment [9] it was 0%; in [10] it was 20%; with Setaria faberi (SETFA) [11], 0%; in the experiment on Solanum nigrum (SOLNI) [12], 40%.

With `C=Cc1c(N)nc(-c2ccc(Cl)c(N(C)C)c2F)nc1C(=O)O` [Compound 33-21, 4-Amino-2-(4-chloro-3-dimethylamino-2-fluorophenyl)-5-ethenylpyrimidine-6-carboxylic acid], the pest or weed control at 1000 g/ha in [1] is 90%; in experiment [2], 100%; in experiment [3] it was 100%; in experiment [4] it was 80%; in the experiment with Setaria faberi (SETFA) [5] it was 100%; in the experiment with Solanum nigrum (SOLNI) [6] it was 100%. Besides, the pest or weed control at 1000 g/ha in [7] came to 90%; in experiment [8] it was 100%; in experiment [9], 100%; in experiment [10] it was 70%; in the experiment with Setaria faberi (SETFA) [11], 100%; in the experiment with Solanum nigrum (SOLNI) [12], 90%.

With `C=C(C)c1c(N)nc(C2CC2)nc1C(=O)OC` [Compound 2-64, 4-Amino-2-cyclopropyl-6-methoxycarbonyl-5-(prop-1-en-2-yl)-pyrimidine], the pest or weed control at 1000 g/ha in experiment [1] was determined as 20%; in experiment [2], 100%; in experiment [3], 0%; in experiment [4], 100%; with Setaria faberi (SETFA) [5], 20%; with Solanum nigrum (SOLNI) [6] it was 80%. For the same molecule, the pest or weed control at 1000 g/ha amounted to 10% in [7]; 60% in experiment [8]; 40% in experiment [9]; 70% in experiment [10]; 30% in the experiment with Setaria faberi (SETFA) [11]; 80% in the experiment on Solanum nigrum (SOLNI) [12].

As for `C=Cc1c(N)nc(-c2ccc(Cl)c(N(C)C)c2F)nc1C(=O)OCCCCCCCC` [Compound 33-392], the “Percentage damage ALOMY, pre-emergence” value in [1] is recorded as 70%. Besides, the “Percentage damage AMARE, pre-emergence” value in experiment [2] is recorded as 100%. In experiment [3], the “Percentage damage ECHCG, pre-emergence” value turned out to be 100%. In addition, in experiment [4], the “Percentage damage IPOHE, pre-emergence” value was found to be 0%. Besides, the “Percentage damage SETFA, pre-emergence” value in the experiment with Setaria faberi (SETFA) [5] is given as 90%. Besides, the “Percentage damage SOLNI, pre-emergence” value in the experiment on Solanum nigrum (SOLNI) [6] came out at 80%. For the same molecule, in [7], the “Percentage damage ALOMY, post-emergence” value is 70%. Also, in experiment [8], the “Percentage damage AMARE, post-emergence” value turned out to be 100%. Besides, the “Percentage damage ECHCG, post-emergence” value in experiment [9] is recorded as 80%. Further, the “Percentage damage IPOHE, post-emergence” value in experiment [10] is 80%. Moreover, the “Percentage damage SETFA, post-emergence” value in the experiment on Setaria faberi (SETFA) [11] was 60%. The “Percentage damage SOLNI, post-emergence” value with Solanum nigrum (SOLNI) [12] is on record as 90%.

Source of the values: patent US20120053053A1, “PYRIMIDINE DERIVATIVES AND THEIR USE AS HERBICIDES” (SYNGENTA CROP PROTECTION, LLC, priority 2009, published 2012).
